Test results: patent publication US12662470B2, “Hydroxy and (halo)alkoxy substituted tetrahydrofurans as modulators of sodium channels” (VERTEX PHARMACEUTICALS INCORPORATED, priority 2021, dated 2026)

Biological target: human NaV 1.8 (Homo sapiens, UniProt Q9Y5Y9)
Assay: E-VIPR Assay Detecting and Measuring NaV Inhibition Properties
Type: cell-based
Conditions: HEK cells expressing a truncated form of human NaV 1.8; compound number with "*": assay performed in the presence of human serum
Source text: Sodium ion channels are voltage-dependent proteins that can be activated by inducing membrane voltage changes by applying electric fields. The electrical stimulation instrument and methods of use, referred to as E-VIPR, are described in International Publication No. WO 2002/008748 A3 and C.-J. Huang et al. Characterization of voltage-gated sodium channel blockers by electrical stimulation and fluorescence detection of membrane potential, 24 Nature Biotech. 439-46 (2006), both of which are incorporated by reference in their entirety. The instrument comprises a microtiter plate handler, an optical system for exciting the coumarin dye while simultaneously recording the coumarin and oxonol emissions, a waveform generator, a current- or voltage-controlled amplifier, and parallel electrode pairs that are inserted into assay plate wells. Under integrated computer control, this instrument passes user-programmed electrical stimulus protocols to cells within the wells of the microtiter plate.
16-20 hours prior to running the assay on E-VIPR, HEK cells expressing a truncated form of human NaV 1.8 with full channel activity were seeded into microtiter 384-well plates, pre-coated with matrigel, at a density of 25,000 cells per well. 2.5-5% KIR2.1 Bacmam virus was added to the final cell suspension before seeding into cell plates. HEK cells were grown in Dulbecco's Modified Eagle's Medium (DMEM) supplemented with 10% FBS (Fetal Bovine Serum, qualified; Sigma #F4135), 1% NEAA (Non-Essential Amino Acids, Gibco #11140), 1% HEPES (Gibco #15630), 1% Pen-Strep (Penicillin-Streptomycin; Gibco #15140) and 5 μg/ml Blasticidin (Gibco #R210-01). Cells were expanded in vented cap cell culture flasks, with 90-95% humidity and 5% CO2.
Reagents and Stock Solutions:
• 100 mg/mL Pluronic F-127 (Sigma #P2443), in dry DMSO • Compound Plates: Corning 384-well Polypropylene Round Bottom #3656 • Cell Plates: 384-well tissue culture treated plates (Greiner #781091-2B)
2.5-5% KIR 2.1 Bacmam virus (produced in-house), prepared as described in Section 3.3 of J. A. Fornwald et al., Gene Expression in Mammalian Cells Using BacMam, a Modified Baculovirus System, 1350 Methods in Molecular Biology 95-116 (2016), the entire contents of which are incorporated by reference. The concentration used can be dependent on viral titer of each batch.
5 mM DiSBAC6(3), a voltage sensitive oxonol acceptor (CAS number 169211-44-3; 5-[3-(1,3-dihexylhexahydro-4,6-dioxo-2-thioxo-5-pyrimidinyl)-2-propen-1-ylidene]-1,3-dihexyldihydro-2-thioxo-4,6(1H,5H)-pyrimidinedione), in dry DMSO. The preparation of DiSBAC6(3) is analogous to that of DiSBAC4(3) as described in Voltage Sensing by Fluorescence Resonance Energy Transfer in Single Cells, Gonzalez, J. E. and Tsien, R. Y. (1995) Biophys. J. 69, 1272-1280.
5 mM CC2-DMPE, a commercially available membrane-bound coumarin phospholipid FRET donor (ThermoFisher Scientific catalog number K1017, CAS number 393782-57-5; tetradecanoic acid, 1,1′-[(1R)-1-[8-(6-chloro-7-hydroxy-2-oxo-2H-1-benzopyran-3-yl)-3-hydroxy-3-oxido-8-oxo-2,4-dioxa-7-aza-3-phosphaoct-1-yl]-1,2-ethanediyl] ester) was prepared in dry DMSO. See also, Improved indicators of cell membrane potential that use fluorescence resonance energy transfer, Gonzalez, J. E. and Tsien, R. Y. (1997) Chem. Biol. 4, 269-277.
Voltage Assay Background Suppression Compound (VABSC-1) is prepared in H2O (89-363 mM, range used to maintain solubility)
Human Serum (HS, Millipore #S1P1-01KL, or Sigma SLBR5469V and SLBR5470V as a 50%/50% mixture, for 25% assay final concentration)
• Sodium Chloride 160 mM (9.35 g/L), Potassium Chloride, 4.5 mM (0.335 g/L), Glucose 10 mM (1.8 g/L), Magnesium Chloride (Anhydrous) 1 mM (0.095 g/L), Calcium Chloride 2 mM (0.222 g/L), HEPES 10 mM (2.38 g/L) in water. […]

Sequence of human NaV 1.8 (Q9Y5Y9 126-1722 limits assumed): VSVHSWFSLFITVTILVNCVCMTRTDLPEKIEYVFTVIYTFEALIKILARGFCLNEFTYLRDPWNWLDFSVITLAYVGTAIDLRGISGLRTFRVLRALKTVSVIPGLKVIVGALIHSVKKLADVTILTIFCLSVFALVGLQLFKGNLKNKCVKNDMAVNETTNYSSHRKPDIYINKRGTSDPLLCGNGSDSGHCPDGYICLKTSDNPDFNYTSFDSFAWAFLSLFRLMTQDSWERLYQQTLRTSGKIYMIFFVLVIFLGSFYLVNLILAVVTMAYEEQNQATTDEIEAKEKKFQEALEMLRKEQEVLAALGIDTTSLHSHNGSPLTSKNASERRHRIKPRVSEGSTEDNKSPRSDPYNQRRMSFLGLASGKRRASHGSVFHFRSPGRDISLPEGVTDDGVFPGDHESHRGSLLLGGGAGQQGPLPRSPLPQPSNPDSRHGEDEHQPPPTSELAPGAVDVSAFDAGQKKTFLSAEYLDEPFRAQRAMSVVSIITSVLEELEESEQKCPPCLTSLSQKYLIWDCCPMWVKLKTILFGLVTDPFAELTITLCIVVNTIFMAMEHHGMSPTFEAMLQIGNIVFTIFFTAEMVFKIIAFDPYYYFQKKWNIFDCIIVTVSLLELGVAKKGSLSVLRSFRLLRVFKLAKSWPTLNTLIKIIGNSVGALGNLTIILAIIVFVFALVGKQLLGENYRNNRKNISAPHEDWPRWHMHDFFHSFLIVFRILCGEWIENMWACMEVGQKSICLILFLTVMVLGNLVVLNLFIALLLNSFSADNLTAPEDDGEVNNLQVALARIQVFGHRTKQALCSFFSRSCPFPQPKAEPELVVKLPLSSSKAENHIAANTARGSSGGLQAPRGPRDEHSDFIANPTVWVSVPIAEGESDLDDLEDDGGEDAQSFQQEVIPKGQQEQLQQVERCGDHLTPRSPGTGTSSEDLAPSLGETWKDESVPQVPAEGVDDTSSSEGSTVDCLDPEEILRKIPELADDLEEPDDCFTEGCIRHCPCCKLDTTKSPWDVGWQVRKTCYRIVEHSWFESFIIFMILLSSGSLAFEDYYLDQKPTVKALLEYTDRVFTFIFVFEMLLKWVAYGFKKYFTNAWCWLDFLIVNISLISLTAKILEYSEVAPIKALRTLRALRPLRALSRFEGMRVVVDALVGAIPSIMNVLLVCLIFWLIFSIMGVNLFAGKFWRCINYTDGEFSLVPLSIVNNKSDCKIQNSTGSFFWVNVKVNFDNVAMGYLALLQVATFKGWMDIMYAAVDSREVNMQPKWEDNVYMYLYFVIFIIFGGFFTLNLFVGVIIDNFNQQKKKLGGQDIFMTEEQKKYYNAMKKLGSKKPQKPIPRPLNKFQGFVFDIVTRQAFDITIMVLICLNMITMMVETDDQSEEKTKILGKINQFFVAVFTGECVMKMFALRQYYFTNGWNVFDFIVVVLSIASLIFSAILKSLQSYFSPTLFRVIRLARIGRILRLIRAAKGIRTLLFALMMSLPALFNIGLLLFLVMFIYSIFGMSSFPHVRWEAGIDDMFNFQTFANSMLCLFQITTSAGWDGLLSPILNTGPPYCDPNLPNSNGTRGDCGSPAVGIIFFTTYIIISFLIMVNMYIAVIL

| IC50 | SMILES |
| --- | --- |
| 100 to 1000 nM | COc1c([C@H]2[C@H](C(=O)Nc3ccnc([C@@H](O)CO)c3)OC(C)(C)[C@H]2OC)ccc(F)c1F (single isomer, unassigned) [Compound 20] |
| ≥ 1000 nM | COc1c([C@@H]2[C@H](OC)[C@H](C)O[C@H]2C(=O)Nc2ccnc([C@@](C)(O)CO)c2)ccc(F)c1F (single isomer, unassigned) [Compound 11, rel-(2R*,3R*,4S*,5S*)-3-(3,4-difluoro-2-methoxyphenyl)-N-(2-(1,2-dihydroxypropan-2-yl)pyridin-4-yl)-4-methoxy-5-methyltetrahydrofuran-2-carboxamide] |
| ≥ 1000 nM | COc1c([C@@H]2[C@@H](C(=O)Nc3ccnc([C@@H](O)CO)c3)OC(C)(C)[C@@H]2OC)ccc(F)c1F (single isomer, unassigned) [Compound 21] |
| ≥ 1000 nM | COc1c([C@@H]2[C@@H](C(=O)Nc3ccnc(C(N)=O)c3)OC(C)(C)[C@@H]2OC)ccc(F)c1F (stereo in doubt) [Compound 19, rel-4-((2S,3S,4R)-3-(3,4-difluoro-2-methoxyphenyl)-4-methoxy-5,5-dimethyltetrahydrofuran-2-carboxamido)picolinamide] |
| ≥ 1000 nM | COc1c([C@@H]2[C@H](OC)[C@H](C)O[C@H]2C(=O)Nc2ccnc([C@@H](O)CO)c2)ccc(F)c1F (single isomer, unassigned) [Compound 9, rel-(2R*,3R*,4S*,5S*)-3-(3,4-difluoro-2-methoxyphenyl)-N-(2-(1,2-dihydroxyethyl)pyridin-4-yl)-4-methoxy-5-methyltetrahydrofuran-2-carboxamide] |
| ≥ 1000 nM | COc1c([C@@H]2[C@@H](C(=O)Nc3ccnc([C@H](O)CO)c3)OC(C)(C)[C@@H]2OC)ccc(F)c1F (single isomer, unassigned) [Compound 23] |
| 100 to 1000 nM | COc1c([C@H]2[C@H](C(=O)Nc3ccnc([C@H](O)CO)c3)OC(C)(C)[C@H]2OC)ccc(F)c1F (single isomer, unassigned) [Compound 22] |
| ≥ 1000 nM | COc1c([C@@H]2[C@H](OC)[C@H](C)O[C@H]2C(=O)Nc2ccnc([C@H](O)CO)c2)ccc(F)c1F (single isomer, unassigned) [Compound 10, rel-(2R*,3R*,4S*,5S*)-3-(3,4-difluoro-2-methoxyphenyl)-N-(2-(1,2-dihydroxyethyl)pyridin-4-yl)-4-methoxy-5-methyltetrahydrofuran-2-carboxamide] |

Same assay, conditions: HEK cells expressing a truncated form of human NaV 1.8; compound number without "*" (not marked as run in the presence of human serum)

| IC50 | SMILES |
| --- | --- |
| 100 to 1000 nM | COc1c([C@H]2[C@H](C(=O)Nc3ccnc(C(N)=O)c3)O[C@@](C)(C(F)(F)F)[C@H]2O)ccc(F)c1F [Compound 2, 4-((2R,3R,4S,5R)-3-(3,4-difluoro-2-methoxyphenyl)-4-hydroxy-5-methyl-5-(trifluoromethyl)tetrahydrofuran-2-carboxamido)picolinamide] |
| < 10 nM | COc1c([C@H]2[C@H](C(=O)Nc3ccnc(C(N)=O)c3)O[C@@](C)(C(F)(F)F)[C@H]2OC)ccc(F)c1C [Compound 5, 4-((2R,3R,4S,5R)-3-(4-fluoro-2-methoxy-3-methylphenyl)-4-methoxy-5-methyl-5-(trifluoromethyl)tetrahydrofuran-2-carboxamido)picolinamide] |
| 100 to 1000 nM | COc1c([C@@H]2[C@H](OC(C)C)[C@H](C)O[C@H]2C(=O)Nc2ccnc(C(N)=O)c2)ccc(F)c1F [Compound 14, 4-((2R,3R,4S,5S)-3-(3,4-difluoro-2-methoxyphenyl)-4-isopropoxy-5-methyltetrahydrofuran-2-carboxamido)picolinamide] |
| ≥ 1000 nM | COc1c([C@@H]2[C@H](OC(C)C)[C@H](C)O[C@H]2C(=O)Nc2ccc(CO)nc2)ccc(F)c1F [Compound 17, (2R,3R,4S,5S)-3-(3,4-difluoro-2-methoxyphenyl)-N-(6-(hydroxymethyl)pyridin-3-yl)-4-isopropoxy-5-methyltetrahydrofuran-2-carboxamide] |
| < 10 nM | CCO[C@H]1[C@@H](c2ccc(F)c(F)c2OC)[C@H](C(=O)Nc2ccnc(C(N)=O)c2)O[C@@]1(C)C(F)(F)F [Compound 25, 4-((2R,3R,4S,5R)-3-(3,4-difluoro-2-methoxyphenyl)-4-ethoxy-5-methyl-5-(trifluoromethyl)tetrahydrofuran-2-carboxamido)picolinamide] |
| 10 to 100 nM | COc1c([C@H]2[C@H](C(=O)Nc3ccnc(C(N)=O)c3)OC(C)(C)[C@H]2OC)ccc(F)c1F (stereo in doubt) [Compound 18, rel-4-((2R,3R,4S)-3-(3,4-difluoro-2-methoxyphenyl)-4-methoxy-5,5-dimethyltetrahydrofuran-2-carboxamido)picolinamide] |
| < 10 nM | COc1c([C@H]2[C@H](C(=O)Nc3ccnnc3)O[C@@](C)(C(F)(F)F)[C@H]2OC)ccc(F)c1C [Compound 4, (2R,3R,4S,5R)-3-(4-fluoro-2-methoxy-3-methylphenyl)-4-methoxy-5-methyl-N-(pyridazin-4-yl)-5-(trifluoromethyl)tetrahydrofuran-2-carboxamide] |
| < 10 nM | CO[C@H]1[C@@H](c2ccc(F)c(F)c2C)[C@H](C(=O)Nc2ccnc(C(N)=O)c2)O[C@@]1(C)C(F)(F)F [Compound 7, 4-((2R,3R,4S,5R)-3-(3,4-difluoro-2-methylphenyl)-4-methoxy-5-methyl-5-(trifluoromethyl)tetrahydrofuran-2-carboxamido)picolinamide] |
| < 10 nM | COc1c([C@H]2[C@H](C(=O)Nc3ccnc(C(N)=O)c3)O[C@@](C)(C(F)(F)F)[C@H]2OC)ccc(F)c1F [Compound 1, 4-((2R,3R,4S,5R)-3-(3,4-difluoro-2-methoxyphenyl)-4-methoxy-5-methyl-5-(trifluoromethyl)tetrahydrofuran-2-carboxamido)picolinamide] |
| ≥ 1000 nM | COc1c([C@H]2[C@H](C(=O)Nc3ccnnc3)O[C@@](C)(C(F)(F)F)[C@H]2O)ccc(F)c1F [Compound 3, (2R,3R,4S,5R)-3-(3,4-difluoro-2-methoxyphenyl)-4-hydroxy-5-methyl-N-(pyridazin-4-yl)-5-(trifluoromethyl)tetrahydrofuran-2-carboxamide] |
| < 10 nM | COc1c([C@@H]2[C@H](OC)[C@H](C(C)C)O[C@H]2C(=O)Nc2ccnc(C(N)=O)c2)ccc(F)c1F [Compound 24, 4-((2R,3R,4S,5S)-3-(3,4-difluoro-2-methoxyphenyl)-5-isopropyl-4-methoxytetrahydrofuran-2-carboxamido)picolinamide] |
| ≥ 1000 nM | COc1c([C@@H]2[C@H](OC(C)C)[C@H](C)O[C@H]2C(=O)Nc2ccc([C@@H](O)CO)nc2)ccc(F)c1F [Compound 16, (2R,3R,4S,5S)-3-(3,4-difluoro-2-methoxyphenyl)-N-(6-((R)-1,2-dihydroxyethyl)pyridine-3-yl)-4-isopropoxy-5-methyltetrahydrofuran-2-carboxamide] |
| 100 to 1000 nM | CCO[C@H]1[C@@H](c2ccc(F)c(F)c2OC)[C@H](C(=O)Nc2ccnc(C(N)=O)c2)O[C@H]1C [Compound 13, 4-((2R,3R,4S,5S)-3-(3,4-difluoro-2-methoxyphenyl)-4-ethoxy-5-methyltetrahydrofuran-2-carboxamido)picolinamide] |
| 100 to 1000 nM | COc1c([C@@H]2[C@H](OC)[C@H](C)O[C@H]2C(=O)Nc2ccnc(C(N)=O)c2)ccc(F)c1F [Compound 8, 4-((2R,3R,4S,5S)-3-(3,4-difluoro-2-methoxyphenyl)-4-methoxy-5-methyltetrahydrofuran-2-carboxamido)picolinamide] |
